Source: patent US20140057332A1, “GLUCO-OLIGOSACCHARIDE OXIDASES FROM ACREMONIUM STRICTUM AND USES THEREOF” (The Governing Council of the University of Toronto, priority 2011, published 2014)

What was measured:
[1] = target: T1, Acremonium strictum gluco-oligosaccharide oxidase GOOX-VN variant 2 Y300N, SEQ ID NO. 7 (Sarocladium strictum, UniProt D7PF15, A38V/S388N/Y300N); experiment: Enzymatic assay, kinetic analysis (chromogenic H2O2 assay) of Y300N; details: 37° C., pH 8.0
T1 sequence (D7PF15 1-474 A38V/Y300N/S388N): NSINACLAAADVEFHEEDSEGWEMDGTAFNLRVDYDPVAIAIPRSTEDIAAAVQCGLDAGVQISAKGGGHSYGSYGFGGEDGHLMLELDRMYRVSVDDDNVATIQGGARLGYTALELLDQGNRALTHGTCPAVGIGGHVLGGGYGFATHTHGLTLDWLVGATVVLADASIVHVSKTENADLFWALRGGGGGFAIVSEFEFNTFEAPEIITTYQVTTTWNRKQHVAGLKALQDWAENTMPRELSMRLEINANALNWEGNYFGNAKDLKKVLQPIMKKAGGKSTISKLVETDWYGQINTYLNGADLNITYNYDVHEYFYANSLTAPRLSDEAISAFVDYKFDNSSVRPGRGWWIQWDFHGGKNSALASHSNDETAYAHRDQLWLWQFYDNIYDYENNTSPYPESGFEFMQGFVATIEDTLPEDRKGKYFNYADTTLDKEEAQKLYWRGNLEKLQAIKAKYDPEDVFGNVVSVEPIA
Procedure: (§1) A chromogenic assay was used to measure hydrogen peroxide production (15). Reactions contained 0.1 mM 4aminoantipyrine (4AA), 1 mM phenol, 0.5 U horseradish peroxidase, 40 mM Tris-HCl (pH 8.0), and different substrates were initiated by adding 0.2 μg of enzymes to the 250 μL reaction mixture. The production of H2O2 was coupled to the oxidation of 4aminoantipyrine by horseradish peroxidase and detected at 500 nm. Reactions were incubated at 37° C. for 15 min to measure the specific activity of GOOX on 10 mM of monosaccharide or 1 mM of oligosaccharide.
(§2) At least 12 substrate concentrations were included to obtain kinetic parameters for each substrate. Initial rates were obtained by measuring reaction products every 30 s for 15 min at 37° C. and pH 8.0, and kinetic parameters were calculated using the Michaelis-Menten equation (GraphPad Prism5 Software).

[2] = target: T2, Acremonium strictum gluco-oligosaccharide oxidase GOOX-VN variant 3 W351F, SEQ ID NO. 8 (Sarocladium strictum, UniProt D7PF15, A38V/S388N/W351F); experiment: Enzymatic assay, kinetic analysis (chromogenic H2O2 assay) of W351F; details: for kcat: 37° C., pH 8.0
T2 sequence (D7PF15 1-474 A38V/W351F/S388N): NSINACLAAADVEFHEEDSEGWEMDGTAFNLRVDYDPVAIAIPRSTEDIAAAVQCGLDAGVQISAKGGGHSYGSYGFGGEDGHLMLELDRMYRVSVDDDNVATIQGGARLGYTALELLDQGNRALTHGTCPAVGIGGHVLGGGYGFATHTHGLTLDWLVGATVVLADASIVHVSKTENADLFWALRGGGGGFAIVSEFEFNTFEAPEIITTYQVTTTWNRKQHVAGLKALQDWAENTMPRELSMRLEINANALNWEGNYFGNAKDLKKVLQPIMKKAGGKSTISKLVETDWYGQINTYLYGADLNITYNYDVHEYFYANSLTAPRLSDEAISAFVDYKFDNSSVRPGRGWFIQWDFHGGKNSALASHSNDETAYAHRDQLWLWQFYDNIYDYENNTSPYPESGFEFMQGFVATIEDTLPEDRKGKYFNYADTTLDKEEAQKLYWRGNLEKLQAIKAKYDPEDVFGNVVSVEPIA
Procedure: as §1, §2

[3] = target: T3, Acremonium strictum gluco-oligosaccharide oxidase GOOX-VN (type strain CBS 346.70, V38 and N388), SEQ ID NO. 2 (Sarocladium strictum, UniProt D7PF15, A38V/S388N); experiment: Enzymatic assay, kinetic analysis (chromogenic H2O2 assay) of GOOX-VN; details: for kcat: 37° C., pH 8.0
T3 sequence (D7PF15 1-474 A38V/S388N): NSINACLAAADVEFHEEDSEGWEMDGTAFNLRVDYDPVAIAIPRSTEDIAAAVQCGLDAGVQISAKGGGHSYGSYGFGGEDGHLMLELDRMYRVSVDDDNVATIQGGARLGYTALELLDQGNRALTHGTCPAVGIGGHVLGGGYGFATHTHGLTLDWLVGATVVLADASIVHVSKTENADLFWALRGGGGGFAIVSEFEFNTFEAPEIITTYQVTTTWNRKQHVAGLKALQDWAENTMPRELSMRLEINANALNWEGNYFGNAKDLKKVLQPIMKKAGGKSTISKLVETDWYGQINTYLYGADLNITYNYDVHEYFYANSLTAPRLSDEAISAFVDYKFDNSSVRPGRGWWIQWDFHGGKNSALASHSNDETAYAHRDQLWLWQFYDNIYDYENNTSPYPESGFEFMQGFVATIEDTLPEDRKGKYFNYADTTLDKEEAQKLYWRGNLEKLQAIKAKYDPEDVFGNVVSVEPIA
Procedure: as §1, §2

[4] = target: T4, Acremonium strictum gluco-oligosaccharide oxidase GOOX-VN variant 1 Y300A, SEQ ID NO. 6 (Sarocladium strictum, UniProt D7PF15, A38V/S388N/Y300A); experiment: Enzymatic assay, kinetic analysis (chromogenic H2O2 assay) of Y300A; details: 37° C., pH 8.0
T4 sequence (D7PF15 1-474 A38V/Y300A/S388N): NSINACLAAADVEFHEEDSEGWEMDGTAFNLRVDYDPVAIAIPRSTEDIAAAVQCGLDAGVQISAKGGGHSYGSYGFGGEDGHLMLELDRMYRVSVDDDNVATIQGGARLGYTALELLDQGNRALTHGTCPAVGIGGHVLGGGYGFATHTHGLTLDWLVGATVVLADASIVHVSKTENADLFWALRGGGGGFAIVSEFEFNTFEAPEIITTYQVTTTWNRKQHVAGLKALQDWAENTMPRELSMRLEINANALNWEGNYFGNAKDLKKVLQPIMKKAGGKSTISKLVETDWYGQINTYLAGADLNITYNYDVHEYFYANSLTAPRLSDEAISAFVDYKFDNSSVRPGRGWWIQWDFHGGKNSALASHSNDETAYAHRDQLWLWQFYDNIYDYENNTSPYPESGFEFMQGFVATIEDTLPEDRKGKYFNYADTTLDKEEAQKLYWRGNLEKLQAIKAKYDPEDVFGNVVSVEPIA
Procedure: as §1, §2

[5] = Chromogenic H2O2 oxidase assay on xylopentaose; details: 1 mM xylopentaose; 37° C., 15 min
Procedure: as §1
(§3) An additional eight mutations, identified as Y72F, Y72A, E247A, E314A, W351A, N388S, Q353N, Q384A, were created in GOOX-VN to assess the influence of these residues on the substrate selectivity of GOOX-VN. […] The specific activity of each mutant was then measured at 37° C. for 15 min using 10 mM mono-sugars and 1 mM oligosaccharides as performed for Y300A, Y300N, and W351F (Table 11).

[6] = Chromogenic H2O2 oxidase assay / kinetic analysis on cellobiose; details: 1 mM cellobiose; 37° C., 15 min
Procedure: as §1, §2

[7] = Chromogenic H2O2 oxidase assay / kinetic analysis on cellotriose; details: 1 mM cellotriose; 37° C., 15 min
Procedure: as §1, §2

[8] = Chromogenic H2O2 oxidase assay on xylohexaose; details: 1 mM xylohexaose; 37° C., 15 min
Procedure: as §1, §3

[9] = Chromogenic H2O2 oxidase assay on xylotetraose; details: 1 mM xylotetraose; 37° C., 15 min
Procedure: as §1, §3

[10] = Chromogenic H2O2 oxidase assay / kinetic analysis on xylobiose; details: 1 mM xylobiose; 37° C., 15 min
Procedure: as §1, §2

[11] = Chromogenic H2O2 oxidase assay / kinetic analysis on xylotriose; details: 1 mM xylotriose; 37° C., 15 min
Procedure: as §1, §2

For `CC(=O)N[C@H]1C(O)O[C@H](CO)[C@@H](O)[C@@H]1O` (stereo partly drawn) [NAG, N-acetylglucosamine], the kcat [1] was 11.34 ± 0.113 s⁻¹, the kcat [2] was 7.785 ± 0.718 s⁻¹ and the kcat [3] was 8.078 ± 0.203 s⁻¹.

Work on `OC1OC[C@@H](O)[C@H](O)[C@H]1O` (stereo partly drawn) [Xylose, xylose] yielded a kcat [4] of 11.33 ± 0.137 s⁻¹, a kcat [1] of 9.932 ± 0.172 s⁻¹ and a kcat [2] of 4.618 ± 0.0633 s⁻¹. For the same molecule, the “change of Km versus GOOX-VN (in words)” value ([2]; W351F compared with GOOX-VN) was “increased” and the kcat [3] was 5.248 ± 0.15 s⁻¹.

Work on `OC1OC[C@@H](O[C@@H]2OC[C@@H](O)[C@H](O)[C@H]2O)[C@H](O)[C@H]1O` (stereo partly drawn) [Xylobiose, xylobiose] yielded a kcat [4] of 13.29 ± 0.122 s⁻¹ and a kcat [1] of 11.96 ± 0.125 s⁻¹.

Molecule `OC[C@H]1OC(O)[C@H](O)[C@@H](O)[C@H]1O` (stereo partly drawn) [Galactose, galactose] has a kcat [4] of 13.3 ± 0.245 s⁻¹, a kcat [1] of 11.76 ± 0.0883 s⁻¹ and a kcat [2] of 6.56 ± 0.075 s⁻¹. The “change of Km versus GOOX-VN (in words)” value ([2]; W351F compared with GOOX-VN) was “decreased”, the “change of catalytic efficiency versus GOOX-VN (in words)” value ([2]; W351F compared with GOOX-VN) was “higher catalytic efficiency” and the kcat [3] was 7.152 ± 0.137 s⁻¹.

With `OC1OC[C@@H](O[C@@H]2OC[C@@H](O[C@@H]3OC[C@@H](O)[C@H](O)[C@H]3O)[C@H](O)[C@H]2O)[C@H](O)[C@H]1O` (stereo partly drawn) [Xylotriose, xylotriose] the kcat [4] was 13.87 ± 0.11 s⁻¹ and the kcat [1] was 11.97 ± 0.185 s⁻¹.

`OC[C@H]1O[C@@H](O[C@H]2[C@H](O)[C@@H](O)C(O)O[C@@H]2CO)[C@H](O)[C@@H](O)[C@@H]1O` (stereo partly drawn) [Cellobiose, cellobiose] showed a kcat [4] of 13.72 ± 0.258 s⁻¹ and a kcat [1] of 11.4 ± 0.187 s⁻¹.

In the case of `OC[C@H]1OC(O)[C@H](O)[C@@H](O)[C@@H]1O` (stereo partly drawn) [Glucose, glucose], the kcat [4] is reported as 13.22 ± 0.24 s⁻¹, the kcat [1] is reported as 10.81 ± 0.103 s⁻¹ and the kcat [2] is reported as 5.622 ± 0.08 s⁻¹. The “change of Km versus GOOX-VN (in words)” value ([2]; W351F compared with GOOX-VN) was “increased”, the kcat [3] was 7.485 ± 0.0917 s⁻¹ and the “catalytic efficiency (in words)” value ([3]; among glucose, xylose, galactose, NAG) was “highest catalytic efficiency”.

B1: Y72F: GOOX-VN mutant with Y72F substitution (protein)
chain: NSINACLAAADVEFHEEDSEGWEMDGTAFNLRVDYDPVAIAIPRSTEDIAAAVQCGLDAGVQISAKGGGHSFGSYGFGGEDGHLMLELDRMYRVSVDDDNVATIQGGARLGYTALELLDQGNRALTHGTCPAVGIGGHVLGGGYGFATHTHGLTLDWLVGATVVLADASIVHVSKTENADLFWALRGGGGGFAIVSEFEFNTFEAPEIITTYQVTTTWNRKQHVAGLKALQDWAENTMPRELSMRLEINANALNWEGNYFGNAKDLKKVLQPIMKKAGGKSTISKLVETDWYGQINTYLYGADLNITYNYDVHEYFYANSLTAPRLSDEAISAFVDYKFDNSSVRPGRGWWIQWDFHGGKNSALASHSNDETAYAHRDQLWLWQFYDNIYDYENNTSPYPESGFEFMQGFVATIEDTLPEDRKGKYFNYADTTLDKEEAQKLYWRGNLEKLQAIKAKYDPEDVFGNVVSVEPIA
With B1 the “Specific Activity of Enzyme Variants” value [5] was 0.4 µmol/min/mg, the “Specific Activity of Enzyme Variants” value [6] was 0.2 µmol/min/mg and the “Specific Activity of Enzyme Variants” value [7] was 0.5 µmol/min/mg.

B2: Q384A: GOOX-VN mutant with Q384A substitution (protein)
chain: NSINACLAAADVEFHEEDSEGWEMDGTAFNLRVDYDPVAIAIPRSTEDIAAAVQCGLDAGVQISAKGGGHSYGSYGFGGEDGHLMLELDRMYRVSVDDDNVATIQGGARLGYTALELLDQGNRALTHGTCPAVGIGGHVLGGGYGFATHTHGLTLDWLVGATVVLADASIVHVSKTENADLFWALRGGGGGFAIVSEFEFNTFEAPEIITTYQVTTTWNRKQHVAGLKALQDWAENTMPRELSMRLEINANALNWEGNYFGNAKDLKKVLQPIMKKAGGKSTISKLVETDWYGQINTYLYGADLNITYNYDVHEYFYANSLTAPRLSDEAISAFVDYKFDNSSVRPGRGWWIQWDFHGGKNSALASHSNDETAYAHRDQLWLWAFYDNIYDYENNTSPYPESGFEFMQGFVATIEDTLPEDRKGKYFNYADTTLDKEEAQKLYWRGNLEKLQAIKAKYDPEDVFGNVVSVEPIA
For B2, the “Specific Activity of Enzyme Variants” value [8] was 0.1 µmol/min/mg, the “Specific Activity of Enzyme Variants” value [6] was 0.2 µmol/min/mg and the “Specific Activity of Enzyme Variants” value [7] was 0.4 µmol/min/mg.

B3: Y72A: GOOX-VN mutant with Y72A substitution (protein)
chain: NSINACLAAADVEFHEEDSEGWEMDGTAFNLRVDYDPVAIAIPRSTEDIAAAVQCGLDAGVQISAKGGGHSAGSYGFGGEDGHLMLELDRMYRVSVDDDNVATIQGGARLGYTALELLDQGNRALTHGTCPAVGIGGHVLGGGYGFATHTHGLTLDWLVGATVVLADASIVHVSKTENADLFWALRGGGGGFAIVSEFEFNTFEAPEIITTYQVTTTWNRKQHVAGLKALQDWAENTMPRELSMRLEINANALNWEGNYFGNAKDLKKVLQPIMKKAGGKSTISKLVETDWYGQINTYLYGADLNITYNYDVHEYFYANSLTAPRLSDEAISAFVDYKFDNSSVRPGRGWWIQWDFHGGKNSALASHSNDETAYAHRDQLWLWQFYDNIYDYENNTSPYPESGFEFMQGFVATIEDTLPEDRKGKYFNYADTTLDKEEAQKLYWRGNLEKLQAIKAKYDPEDVFGNVVSVEPIA
For B3, the “Specific Activity of Enzyme Variants” value [8] was 2.2 µmol/min/mg, the “Specific Activity of Enzyme Variants” value [9] was 2.5 µmol/min/mg and the “Specific Activity of Enzyme Variants” value [5] was 3.2 µmol/min/mg. For the same molecule, the “Specific Activity of Enzyme Variants” value [10] was 0.5 µmol/min/mg, the “Specific Activity of Enzyme Variants” value [6] was 1.1 µmol/min/mg and the “Specific Activity of Enzyme Variants” value [11] was 1.3 µmol/min/mg. The “Specific Activity of Enzyme Variants” value [7] was 2.1 µmol/min/mg.
